The text below walks through data of patent EP3156398A1, “AGONISTS OF THE CHEMOKINE RECEPTOR CXCR3” (Friedrich-Alexander-Universität Erlangen-Nürnberg, priority 2015, dated 2017).

One experiment deals with T1, CXCR3-PK1 (Homo sapiens, UniProt P49682).
T1 construct: expressed in transfected cells; host or cells: HEK293 cells stably expressing beta-gal enzyme acceptor (PathHunter, DiscoveRx), transiently transfected
T1 sequence (P49682 1-368): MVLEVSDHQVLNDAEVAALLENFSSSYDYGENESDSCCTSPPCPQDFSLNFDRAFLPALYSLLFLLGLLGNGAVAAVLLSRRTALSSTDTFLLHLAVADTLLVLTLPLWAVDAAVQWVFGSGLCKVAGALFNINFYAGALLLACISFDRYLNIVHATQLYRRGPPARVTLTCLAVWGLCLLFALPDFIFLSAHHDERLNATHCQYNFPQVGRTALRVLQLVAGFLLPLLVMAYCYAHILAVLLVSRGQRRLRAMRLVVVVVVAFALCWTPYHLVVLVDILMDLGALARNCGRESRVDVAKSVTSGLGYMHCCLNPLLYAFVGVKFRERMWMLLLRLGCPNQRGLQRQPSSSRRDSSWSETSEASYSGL
Put plainly: β-arrestin 2 recruitment assay (PathHunter, DiscoveRx), CXCR3-PK1 construct. Type of experiment: cell-based. The following applies: for CXCR3-PK1 pEC50 ± SEM: HEK293-T cells, PathHunter, two to three experiments in triplicate. The procedure: (§1) β-arrestin 2 recruitment assay: The measurement of β-arrestin recruitment was performed utilizing the PathHunter assay purchased from DiscoveRx (DiscoveRx, Birmingham, U.K.) according to the manufacturer's protocol. HEK293 cells stably expressing β-gal enzyme acceptor were transiently transfected with the ProLink (PK1) tagged wildtype CXCR3 receptor using the TransIT-293 transfection reagent from Mirus (purchased from MoBiTec, Goettingen, Germany). The assay was carried out in 384-well plates containing 2000 cells in 20 µL. After incubation at 37°C (5% CO2, 95% relative humidity) overnight, various concentrations of test compounds or CXCL11 (prepared in PBS, pH 7.4, containing 0.20% BSA) were added and the incubation continued for 4 h. Detection mix was then added and incubated for further 60 min at room temperature. Chemiluminescence was determined with a microplate reader Clariostar (BMG labtech, Ortenberg, Germany).
(§2) The ability of the novel ligands according to the present invention to induce CXCR3-mediated β-arrestin 2 recruitment was investigated in the assay system PathHunter (DiscoveRx), which detects the recruitment of β-amestin 2 to the activated receptor using β-galactosidase (β-gal) enzyme fragment complementation. The inventors used two different ProLink tags, ProLink1 (PK1) and ProLink2 (PK2), of which PK2 has higher affinity for the enzyme acceptor to detect weak protein-protein interactions. The CXCR3-PK2 construct is readily able to detect the differences in the propensity of CXCL11 and CXCL10 to induce β-arrestin 2 recruitment at CXCR3. […] Table 3. Ability of the 46/VUF10661 based positive allosteric modulators to activate the CXCR3 as measured in the β-arrestin 2 recruitment assay (PathHunter, DiscoveRx).[a]
Background: Arrestin recruitment assays detect the binding of arrestin to an activated receptor.

In the next experiment the target is T2, CXCR3 (Homo sapiens, UniProt P49682).
T2 construct: expressed in transfected cells; host or cells: HEK293 / HEK293T cells, stably transfected; membrane preparations
T2 sequence (P49682 1-368): T1 sequence (P49682 1-368)
Put plainly: [35S]GTPγS incorporation assay. It counts as biochemical. Conditions: for CXCR3 Efficacy (%) ± SEM / Emax: % of CXCL11 mediated effect; for CXCR3 Efficacy (%) ± SEM / CXCR3 pEC50 ± SEM / Emax: membrane preparations of HEK293T stably expressing CXCR3; for CXCR3 pEC50 ± SEM: mean of three experiments in triplicate; for Emax: read-out: CXCR3 Efficacy (%) ± SEM. The protocol: Membrane preparation for allosteric radioligand RAMX3 displacement and [^35S]GTPγS incorporation assays: The human embryonic kidney (HEK) cells stably expressing the human CXCR3 receptor were cultured in 150-mm cell culture plates in DMEM/F-12 supplemented with 10% fetal bovine serum (FBS), 2 mM L-glutamine, 1% penicillin-streptomycin, 300 µgmL^-1 Zeocin and incubated at 37 °C in a humid atmosphere with 5% CO2. At 100% confluency cells were washed with PBS twice, treated with Tris EDTA buffer (10 mM Tris, 0.5 mM EDTA, 5 mM KCl, 140 mM NaCl, pH 7.4), and harvested using a cell scraper. Cells were pelleted at 1100×g for 8 min at 4 °C, resuspended in Tris-EDTA-MgCl2 buffer (50mM Tris, 5 mM EDTA, 1.5 mM CaCl2, 5 mM MgCl2, 5 mM KCl, 120 mM NaCl, pH 7.4) and followed by lysis with an Ultra-Turrax. After centrifugation at 50,000•g, at 4°C for 18 min the membranes were resuspended in the binding buffer (50 mM Tris, 1 mM EDTA, 5 mM MgCl2 and subsequently homogenized with a glass-Teflon homogenizer (20 strokes). The homogenized membranes were shock-frozen in liquid nitrogen and stored at -80°C. The protein concentration was determined with the Lowry method with bovine serum albumin used as a standard.^35
[^35S]GTPγS incorporation assay: The [^35S]GTPγS incorporation assay was performed on membrane preparations of stably transfected HEK293 cells that expressed the CXCR3 receptor. The assay was carried out in 96-well plates at the final volume of 200 µL. The incubation buffer contained 20 mM HEPES, 10 mM MgCl2•6H20,100 mM NaCl and 100 mg/L saponin (pH 7.4). Membranes (30 µgmL^-1 of membrane protein), various concentrations of test compound and CXCL11, and 1 µM GDP were preincubated in the absence of [^35S]GTPγS for 30 min at 37 °C. After the addition of 0.10 nM [^35S]GTPγS membranes were incubated for additional 30 min at 37 °C. Incubation was terminated by filtration through Whatman GF/B filters soaked with ice cold PBS. The filter-bound radioactivity was measured as described above. Three to four experiments per compound were performed with each concentration in triplicate.
The activation of G proteins was explored in terms of CXCR3 mediated [^35S]GTPγS incorporation. In the [^35S]GTPγS incorporation assay the membrane preparations of HEK293T cells stably expressing CXCR3 were used. The activation of G proteins was monitored as the incorporation of [^35S]GTPγS and thus increase in the incorporated radioactivity. The potency and efficacy of the novel compounds was first compared to the reference compound 46/VUF10661. […] Table 1. The ability of the 46/VUF10661 based positive allosteric modulators to activate CXCR3 as measured in the [35S]GTPγS incorporation assay.[a]
Background: GTPγS is a poorly hydrolysed GTP analogue; its binding reports G protein activation.

Another experiment concerns the target T3, CXCR3-PK2 (Homo sapiens, UniProt P49682).
T3 construct: expressed in transfected cells
T3 sequence (P49682 1-368): T1 sequence (P49682 1-368)
The experiment is described as follows: β-arrestin 2 recruitment assay (PathHunter, DiscoveRx), CXCR3-PK2 construct. It counts as cell-based. Conditions: for CXCR3-PK2 pEC50 ± SEM: HEK293-T cells, PathHunter. The protocol:
as §1, §2
To investigate the efficacy of identified partial agonists in the assay format, the inventors used the CXCR3-PK2 construct, which is characterized by higher sensitivity to detect β-arrestin 2 recruitment. The compounds which appeared as weak partial agonists under CXCR3-PK1 conditions appeared as strong partial agonists under CXCR3-PK2 conditions with the efficacy increased up to 80% (Table 4). FAUC1036 reached the efficacy of 66%. […] Table 4. Ability of the compound 5 based positive allosteric modulators to activate the CXCR3 as measured in the β-arrestin 2 recruitment assay (PathHunter, DiscoveRx).[a]

The mark [1] stands for this setting: % of CXCL11 mediated effect, CXCR3-PK1, read-out: CXCR3-PK1 efficacy (%) (converted).
Where [2] appears, read: % of CXCL11 mediated effect, CXCR3-PK2, read-out: CXCR3-PK2 efficacy (%) (converted).

Read-outs that look alike come from different tables or passages of the source.

Take `CC(=O)CCC(=O)N1Cc2ccccc2C[C@H]1C(=O)NCCCC[C@H](NC(=O)OC(C)(C)C)C(=O)NCC(c1ccccc1)c1ccccc1` [Compound 12, Tert-butyl((S)-1-((2,2-diphenylethyl)amino)-1-oxo-6-((S)-2-(4-oxopentanoyl)-1,2,3,4-tetrahydroisoquinoline-3-carboxamido)hexan-2-yl)carbamate]: the Emax at CXCR3-PK1 (setting [1]) is 34%; on CXCR3-PK2 (setting [2]), 63%. Besides, at CXCR3-PK1 (CXCR3-PK1), the “CXCR3-PK1 pEC50 ± SEM” value is reported as 6.78±0.17. Moreover, on CXCR3, the “CXCR3 Efficacy (%) ± SEM” value is on record as “No effect”. In addition, at CXCR3, the “CXCR3 pEC50 ± SEM” value was “No effect”. Further, the “CXCR3-PK2 pEC50 ± SEM” value at CXCR3-PK2 (CXCR3-PK2) is 6.64±0.33.
In the case of `CC(C)(C)OC(=O)N[C@H](CCCCNC(=O)[C@@H]1Cc2ccccc2CN1C(=O)CCC(=O)c1ccccc1)C(=O)NCC(c1ccccc1)c1ccccc1` [Compound 34, Tert-butyl ((R)-1-((2,2-diphenylethyl)amino)-1-oxo-6-((S)-2-(4-oxo-4-phenylbutanoyl)-1,2,3,4-tetrahydroisoquinoline-3-carboxamido)hexan-2-yl)carbamate], the Emax is 16% at CXCR3-PK1 (setting [1]) and 88% on CXCR3-PK2 (setting [2]). Besides, on CXCR3-PK1 (CXCR3-PK1), the “CXCR3-PK1 pEC50 ± SEM” value is 6.95±0.50. Besides, on CXCR3, the “CXCR3 Efficacy (%) ± SEM” value is “No effect”. In addition, the “CXCR3 mediated G protein activation (result in words)” value at CXCR3 ([35S]GTPγS incorporation) is “failed to induce CXCR3 mediated G protein activation”. Besides, the “CXCR3 pEC50 ± SEM” value at CXCR3 was “No effect”. In addition, at CXCR3-PK2, the “β-arrestin 2 recruitment agonism using PK2 tag (result in words)” value was “reached the levels of full agonism”. Moreover, the “CXCR3-PK2 pEC50 ± SEM” value at CXCR3-PK2 (CXCR3-PK2) is recorded as 6.86±0.19.
Regarding `N[C@H](CCCCNC(=O)[C@@H]1Cc2ccccc2CN1C(=O)CCC(=O)c1ccccc1)C(=O)NCC(c1ccccc1)c1ccccc1.O=C(O)C(F)(F)F` [Compound 35, (R)-1-((2,2-diphenylethyl)amino)-1-oxo-6-((S)-2-(4-oxo-4-phenylbutanoyl)-1,2,3,4-tetrahydroisoquinoline-3-carboxamido)hexan-2-aminium 2,2,2-trifluoroacetate], the Emax on CXCR3-PK1 (setting [1]) was 28%; on CXCR3, 25 ± 4%; on CXCR3-PK2 (setting [2]), 79%. In addition, on CXCR3-PK1 (CXCR3-PK1), the “CXCR3-PK1 pEC50 ± SEM” value came out at 7.16±0.33. In addition, the “CXCR3 pEC50 ± SEM” value on CXCR3 was 8.01±0.31. Moreover, the “CXCR3-PK2 pEC50 ± SEM” value at CXCR3-PK2 (CXCR3-PK2) is listed as 6.52±0.43.
Turning to `CC(C)(C)OC(=O)N[C@@H](CCCCNC(=O)[C@@H]1Cc2ccccc2CN1C(=O)CCCC(=O)c1ccccc1)C(=O)NCC(c1ccccc1)c1ccccc1` [Compound 24, Tert-butyl ((S)-1-((2,2-diphenylelhyl)amino)-1-oxo-6-((S)-2-(5-oxo-5-phenylpentanoyl)-1,2,3,4-tetrahydroisoquinoline-3-carboxamido)hexan-2-yl)carbamate], the “CXCR3-PK1 pEC50 ± SEM” value on CXCR3-PK1 (CXCR3-PK1) is 6.84±1.7. Besides, the Emax on CXCR3-PK1 (read-out: CXCR3-PK1 efficacy (%)) was 20%. Also, at CXCR3, the “CXCR3 Efficacy (%) ± SEM” value is “No efffect” and the “CXCR3 pEC50 ± SEM” value is “No effect”. For the same compound, the “CXCR3-PK2 pEC50 ± SEM” value on CXCR3-PK2 (CXCR3-PK2) came out at 6.78±0.35. Besides, the Emax at CXCR3-PK2 (read-out: CXCR3-PK2 efficacy (%)) was 56%.
In the case of `CC(C)(C)OC(=O)N[C@@H](CCCCNC(=O)[C@@H]1Cc2ccccc2CN1C(=O)CCC(=O)c1ccc(F)cc1)C(=O)NCC(c1ccccc1)c1ccccc1` [Compound 13, Tert-butyl ((S)-1-((2,2-diphenylethyl)amino)-6-((S)-2-(4-(4-fluorophenyl)-4-oxobutanoyl)-1,2,3,4-tetrahydroisoquinoline-3-carboxamido)-1-oxohexan-2-yl)carbamate], the “β-arrestin 2 recruitment, intrinsic agonism (result in words)” value at CXCR3-PK1 is “complete loss of intrinsic agonistic properties”. Further, at CXCR3-PK1 (CXCR3-PK1), the “CXCR3-PK1 pEC50 ± SEM” value is “No effect”. On CXCR3, the Emax came to 20 ± 3% and the “CXCR3 pEC50 ± SEM” value was determined as 6.29±0.31.
For `CC(C)(C)OC(=O)N[C@@H](CCCCNC(=O)[C@@H]1Cc2ccccc2CN1C(=O)CCC(=O)c1ccco1)C(=O)NCC(c1ccccc1)c1ccccc1` [Compound 20, Tert-butyl ((S)-1-((2,2-diphenylethyl)amino)-6-((S)-2-(4-(furan-2-yl)-4-oxobutanoyl)-1,2,3,4-tetrahydroisoquinoline-3-carboxamido)-1-oxohexan-2-yl)carbamate], the “CXCR3-PK1 pEC50 ± SEM” value at CXCR3-PK1 (CXCR3-PK1) was “No effect”. For the same compound, on CXCR3, the “CXCR3 Efficacy (%) ± SEM” value is listed as “No effect” and the “CXCR3 pEC50 ± SEM” value is listed as “No effect”.
As to `CC(C)(C)OC(=O)N[C@@H](CCCCNC(=O)[C@@H]1Cc2ccccc2CN1C(=O)CCC(=O)c1cccs1)C(=O)NCC(c1ccccc1)c1ccccc1` [Compound 19, Tert-butyl ((S)-1-((2,2-diphenylethyl)amino)-1-oxo-6-((S)-2-(4-oxo-4-(thiophen-2-yl)butanoyl)-1,2,3,4-tetrahydroisoquinoline-3-carboxamido)hexan-2-yl)carbamate], the “CXCR3-PK1 pEC50 ± SEM” value on CXCR3-PK1 (CXCR3-PK1) is on record as “No effect”. In addition, at CXCR3, the “CXCR3 Efficacy (%) ± SEM” value is “No effect” and the “CXCR3 pEC50 ± SEM” value is “No effect”.
